Data reported in patent US7250402B2, “Avermectin derivatives” (The Kitasato Institute, priority 2000, dated 2007).

Experiments:
Caenorhabditis elegans = experiment: Antiparasitic activity against Caenorhabditis elegans in 96 well microplate (movement graded 0-3, MIC); assay type: in vivo; conditions: concentration required to give Indication 2 (or 3) for caenorhabditis elegans; 20° C., observed after 24 and 48 hours
From the text: (§1) Methods for determining antiparasitic effects of the compounds disclosed according to the present invention are explained below.
(§2) As model insects for simple determination of antiparasitic and insecticidal activities, those insects are desired which can be easily obtained and bred in laboratories, and have no pathogenicity to a human. Caenorhabditis elegans, an unparasitic eelworm widely used in experiments of genetics, was used as a typical steam worm, and artemia salina used as feed for tropical fish and named Brine shrimp, was used instead of insects.
Preparation of Caenorhabditis elegans Used for Evaluation
Escherichia coli for the feed of caenorhabditis elegans (mutant having uracil requirement) was inoculated in a seed medium for E. coli to which a small amount of uracil was added, and cultured with shaking at 27° C. for 1 day. A petri dish of 6 cm diameter was filled with 10 mL of an agar medium for eelworm proliferation, and the medium was solidified. Then 0.5 mL of the culture of E. coli was spread over the medium in the dish, and the dish was incubated at 37° C. to proliferate E. coli. A piece of the agar was collected with a platinum loop from a petri dish in which caenorhabditis elegans successfully proliferated, and inoculated in petri dishes in which E. coli was proliferated. The petri dishes were incubated at 20° C. to proliferate caenorhabditis elegans. Since the life of eelworm is about 2 weeks, subculture was carried out every once a week. The eelworms grown with spread on the surface of the petri dish after 3 to 5 days from subculture were used for the experiments.
<Preparation of Agar Medium for Eelworm Proliferation>
Solution A was obtained by dissolving 0.3% of sodium chloride, 1.7% of bact-agar (DIFCO Co.), 0.5% of bact-peptone (DIFCO Co.) and 1.0% of yeast extract (DIFCO Co.) in distilled water.
Solution B was obtained by dissolving 0.5% of cholesterol in ethanol.
Solution C was obtained by dissolving 13.9% of calcium chloride in distilled water.
Solution D was obtained by dissolving 30.8% of magnesium sulfate heptahydrate in distilled water.
Solution E was obtained by dissolving 13.54% of KH2PO4 and 4.45% of K2HPO4 in distilled water.
The aforementioned Solutions A, C and D were sterilized in an autoclave at 121° C. for 20 minutes, and each solution was stored at 4° C.
The agar medium for eelworm proliferation was prepared by mixing the solutions in the following proportion: Solution A: 100 mL, Solution B: 0.1 mL, Solution C: 0.05 mL, Solution D: 0.1 mL and Solution E: 2.5 mL (without pH adjustment), and dispensing each 10 mL portion into petri dishes of 60×15 mm.
<Preparation of E. coli Seed Medium>
In distilled water, 2.0% of bact-trypton (DIFCO Co.), 0.55% of sodium chloride and 0.001% of uracil (SIGMA Co., pH 7.4) were dissolved, and the solution was sterilized in an autoclave at 121° C. for 20 minutes.
(§3) Each well of a 96 well microplate was filled with the solution of the test compound (methanol as a solvent), and the solvent was removed using a vacuum pump, then 250 μl of the assay medium was added to each wells (the assay medium was prepared by dissolving 7.5 mM sodium hydrogencarbonate, 7.5 mM potassium chloride, 7.5 mM calcium chloride dihydrate and 7.5 mM magnesium sulfate heptahydrate in distilled water and adding 0.01% of lecithin to the solution), and then the microplate was shaken using a microplate mixer for 15 minutes. To each well, a few individuals of caenorhabditis elegans were added by softly rubbing the surface of the agar using a toothpick, or a few individuals of artemia salina were added together with 50 μl of the buffer. The microplate was incubated at 20° C., and then the insects were observed after 24 and 48 hours under a microscope (magnification of 40×). The results were compared to those obtained without addition of the test compound, and evaluated by 4 grades.
(§4) The evaluation results were shown by indications of 4 grades from 0 to 3.
1: A little week movements […]

artemia salina = experiment: Insecticidal model activity against artemia salina (Brine shrimp) in 96 well microplate (movement graded 0-3, MIC); assay type: in vivo; conditions: concentration required to give Indication 2 (or 3) for artemia salina; 20° C., observed after 24 and 48 hours
From the text: as §1, §2
<Preparation of Artemia salina Used for Evaluation>
To a buffer for artemia salina (obtained by dissolving 0.24% of Tris, 2.57% of sodium chloride, 0.47% of magnesium chloride, 0.07% of potassium chloride, 0.02% of sodium carbonate, 0.64% of magnesium sulfate and 0.11% of calcium chloride in distilled water and adjusting the pH to 7.1 with hydrochloric acid), dried eggs of artemia salina [Tetra Brine Shrimp Eggs, Warner Lambert Co.] were added. The noprius larvae 1 or 2 days after hatching were used for the experiments.
as §3, §4
1: A little week movements
Of the 4 grades, Indications 3 and 2 were judged as effective, and Indications 1 and 0 as ineffective. In Table 7, the values for each compound are minimum inhibitory concentrations (MIC) which were required to give Indication 2 (or 3) for caenorhabditis elegans or artemia salina. In Table 7, caenorhabditis elegans and artemia salina are abbreviated as C.E. and A.S., respectively.

Compound	C.E. minimum inhibitory concentrations (MIC) (Caenorhabditis elegans) [ng/mL]	A.S. minimum inhibitory concentrations (MIC) (artemia salina) [ng/mL]
CC[C@H](C)[C@H]1O[C@]2(C=C[C@@H]1C)C[C@@H]1C[C@@H](C/C=C(\C)[C@@H](O[C@H]3C[C@H](OC)[C@@H](O)[C@H](C)O3)[C@@H](C)/C=C/C=C3\CO[C@@H]4[C@H](O)C(C)=C[C@@H](C(=O)O1)[C@]34O)O2 [Avermectin B1a monosaccharide, avermectin B1a monosaccharide]	2	2
CCC(C)C1OC2(C=C[C@@H]1C)CC1CC(C/C=C(\C)C(O[C@H]3CC(OC)C(=CC(=O)O)C(C)O3)[C@@H](C)/C=C/C=C3\COC4C(O)C(C)=CC(C(=O)O1)[C@]34O)O2 (stereo partly drawn) [Compound 6]	2	2
CCC(C)C1O[C@]2(C=C[C@@H]1C)C[C@@H]1CC(C/C=C(\C)[C@@H](OC3C[C@H](OC)[C@@H](OC4C[C@H](OC)[C@@H](O)[C@H](C)O4)[C@H](C)O3)[C@@H](C)/C=C/C=C3\COC4[C@H](O)C(C)=CC(C(=O)O1)[C@]34O)O2 (stereo partly drawn) [Avermectin B1a]	2	0.5
Ivermectin	2	2
CCC(C)C1OC2(CC[C@@H]1C)CC1CC(C/C=C(\C)C(O[C@H]3CC(OC)C(=CC#N)C(C)O3)[C@@H](C)/C=C/C=C3\COC4C(O)C(C)=CC(C(=O)O1)[C@]34O)O2 (stereo partly drawn) [Compound 22]	2	2
CCC(C)C1OC2(CCC1C)CC1CC(CC=C(C)C(OC3CC(OC)C(O)C(C)O3)C(C)C=CC=C3COC4C(O)C(C)=CC(C(=O)O1)C34O)O2 (stereo not drawn) [Ivermectin monosaccharide, 22,23-dihydroavermectin B1a monosaccharide]	2	2
